# According to patent US8703424B2, “Predicting human developmental toxicity of pharmaceuticals using human stem-like cells and metabolomics” (Stemina Biomarker Discovery, Inc., priority 2010, dated 2014):
# Legend:
# WA09 hES cells = assay: Pathway enrichment analysis of annotated mass features on KEGG human metabolic networks (Example 8); assay type: cell-based; conditions: across dose levels; positive and negative features
# Description: Pathways enrichment analysis was performed by mapping annotated mass features for each experimental compound to human metabolic networks using KEGG compound ids. Hypergeometric p-values and false discovery rates (FDR) were used to assign a quantitative measure of statistical significance to each network. Features derived from ESI negative and positive mode for each experimental compound were pooled for this analysis. False positive results can be generated by isobaric compounds that generate multiple “hits” in a network from the same mass, so unique masses instead of unique compound ids were used for these calculations. The relevant parameters used to calculate hypergeometric p-values for each network were: the number of unique mass “hits”, the number of unique masses in the network, and the total number of unique masses in all of the human networks in the KEGG database. For each experimental compound, the p-values for the derived networks were converted to FDR using the Benjamini and Hochberg (1995) correction.
# Feature Selection was performed on a per compound basis using a one-way anova evaluating the difference of dose level means and on a per dose basis using Welch T-tests and PLS-DA VIP score. […] If a feature was selected as interesting in a drug or dose level comparison it was then evaluated experiment wide for fold changes. Following feature selection only significant features putatively annotated as mammalian in origin and present on KEGG network diagrams were further evaluated. […] These selection criteria focused the analysis on biochemical pathways.
# Following selection, features were passed through a quality control evaluation of extracted ion chromatograms (EICs) to confirm the validity of individual mass features. Features passing quality control were further evaluated to confirm estimated fold changes. After removing poor quality and duplicate features, the remaining ESI positive and ESI negative mode features were combined into a unified dataset for evaluation of pathway enrichment by treatment.
# [1] = tested on: WA09 human embryonic stem (hES) cells; assay: PLS-DA prediction of teratogenicity from secretome of treated hES cells (Example 9)
# Description: These included 11 known teratogens and 11 known non-teratogens. The current model is based on the mean fold change (treatment versus its associated intra-experimental control) of 15 metabolites common among the secretome of hES cells treated with pharmaceutical agents and unknown chemical compounds.
# WA09 hESCs = assay: Random forest prediction of teratogenicity from metabolomics of spent media of dosed hESCs; assay type: cell-based, human; conditions: blind study; model trained on TS1, 142 mass features; circulating dose
# Description: WA09 hESCs, obtained from WiCell Research Institute (NIH National Stem Cell Bank, Madison, Wis.) were cultured in 6-well plates on Matrigel (BD Biosciences, San Jose, Calif.), in mTeSR1 medium (Stem Cell Technologies, Vancouver, BC) incubated at 37° C. under 5% CO2 in a Thermo Electron Form a Series II Water Jacket CO2 Incubator. hESCs were passaged every three or four days at a 1:3 or 1:6 seeding density for routine culture conditions. For dosing experiments, hESCs were passaged at a low density of 1:10 or 1:12 so that they would not require passaging during the […] dosing protocol. To passage hES cells, the StemPro® EZPassage™ disposable stem cell passaging tool (Invitrogen, Carlsbad, Calif.) was used to detach the cells from the wells. Detached cells were removed with a pipette and distributed to new Matrigel plates.
# These medium controls provided baseline mass spectral data.
# The 2.5 mL of spent media per well from Example 1 was added to 1.67 mL acetonitrile to make a 40% acetonitrile solution. The acetonitrile acts to “quench” the spent media sample, slowing or halting many metabolic processes and aiding in precipitation of cellular proteins. Samples were either stored at −80° C. for later analysis, or for immediate analysis, 250 μL of the quenched solution was mixed with 250 μL of water, to a final concentration of 20% acetonitrile, then added to a 3 kDa molecular weight cut-off filter spin column (Microcon YM-3 Centrifugal Filter, Millipore, Billerica, Mass.). Each sample was then centrifuged in an IEC CL31R Multispeed Centrifuge (Thermo Scientific, Waltham, Mass.) at 13,000×g at 4° C. for 200 minutes. Following centrifugation, the flow-through was saved then dried for several hours in a Savant High Capacity Speedvac Plus Concentrator. The concentrated sample was then dissolved in 50 μL of 0.1% formic acid prior to LC-MS analysis.
# 5 μl of each sample was injected.
# Following LC-MS, chromatograms were inspected for reproducibility. LC-MS runs with total ion counts that vary by more than 25% were repeated to ensure that samples could be accurately compared. These runs were then used to create mass features that correspond to molecules detected across the different LC-MS runs. Mass features were extracted from the LC-MS data using MassHunter Qualitative Analysis software (Agilent Technologies). The following criteria were used as general guidelines, however some flexibility and optimization was needed. m/z values within the range of 75-1500, with a charge of +1 or −1, and a centroid height greater than 1000 were used to generate “mass features.” The mass peaks that pass these criteria were used to fit isotope and adduct (Na^+, K^+, and NH4^+) patterns corresponding to individual molecules, and to establish the abundance of each mass feature. The abundance is calculated by MassHunter software as the sum of the isotopic and adduct peaks that correspond to a single molecular feature. After data deconvolution, mass features showing at least two ions (e.g. (M^+H)^+ and (M^+H)^++1 or (M^+H)^+ and (M^+Na)^+) and an abundance value greater than 50000 for positive-ion mode data and 10000 in negative-ion mode data were included in the data set used for binning of the mass features.
# Following feature selection by MassHunter, the data was further preprocessed by MassProfiler (Agilent) software which aligns mass features across multiple LC-MS data files. Mass features were generated for data from each drug treatment experiment (dosed and control) using the default alignment settings in MassProfiler with the requirement that a feature be present in at least 80% of the samples in one treatment. The mass feature datasets for each drug treatment experiment were further processed in a global manner using custom analysis scripts executed in the R statistical software environment. […]
# [2] = DevTox pharmaceutical, high dose (H = 10x circulating dose)
# [3] = DevTox pharmaceutical, low dose (L = 0.1x circulating dose)
# [4] = EPA compounds, high dose level (H)
# [5] = EPA compounds, low dose level (L)
# [6] = EPA compounds, medium dose level (M)
smiles,measurement,setting,value
CN(C)CCOC(C)(c1ccccc1)c1ccccn1 (centres unmarked) [Doxylamine],"Number of unique KEGG ID annotations: Alanine, aspartate and glutamate metabolism",WA09 hES cells,1
same,Number of unique KEGG ID annotations: Arginine and proline metabolism,WA09 hES cells,1
same,Number of unique KEGG ID annotations: Ascorbate and aldarate metabolism,WA09 hES cells,2
same,Number of unique KEGG ID annotations: Citrate cycle (TCA cycle),WA09 hES cells,1
same,Number of unique KEGG ID annotations: Cysteine and methionine metabolism,WA09 hES cells,2
same,Number of unique KEGG ID annotations: Galactose metabolism,WA09 hES cells,2
same,Number of unique KEGG ID annotations: Glutathione metabolism,WA09 hES cells,1
same,Number of unique KEGG ID annotations: Glyoxylate and dicarboxylate metabolism,WA09 hES cells,3
same,Number of unique KEGG ID annotations: Nicotinate and nicotinamide metabolism,WA09 hES cells,5
same,Number of unique KEGG ID annotations: Pantothenate and CoA biosynthesis,WA09 hES cells,3
same,Number of unique KEGG ID annotations: Pentose and glucuronate interconversions,WA09 hES cells,3
same,Number of unique KEGG ID annotations: Pentose phosphate pathway,WA09 hES cells,1
same,Number of unique KEGG ID annotations: Propanoate metabolism,WA09 hES cells,3
same,Number of unique KEGG ID annotations: Pyruvate metabolism,WA09 hES cells,6
same,Number of unique KEGG ID annotations: Vitamin B6 metabolism,WA09 hES cells,3
same,PLS-DA classification,[1]; 0.38 μM,not classified as a teratogen
same,% Non (PLS-DA class probability non-teratogen),[1]; [2],0.38
same,% Ter (PLS-DA class probability teratogen),[1]; [2],0.62
same,Confidence (difference between class probabilities),[1]; [2],0.24
same,Prediction,[1]; [2],Ter
same,% Non (PLS-DA class probability non-teratogen),[1]; [3],0.58
same,% Ter (PLS-DA class probability teratogen),[1]; [3],0.42
same,Confidence (difference between class probabilities),[1]; [3],0.16
same,Prediction,[1]; [3],Non
same,% Non (PLS-DA generated class probability),[1]; [4],0.45
same,% Ter (PLS-DA generated class probability),[1]; [4],0.55
same,Prediction,[1]; [4],Ter
same,Confidence (difference between class probabilities),"[1]; EPA compounds, high dose level (H), values less than 0.1 inconclusive",0.1
same,% Non (PLS-DA generated class probability),[1]; [5],0.41
same,% Ter (PLS-DA generated class probability),[1]; [5],0.59
same,Prediction,[1]; [5],Ter
same,Confidence (difference between class probabilities),"[1]; EPA compounds, low dose level (L), values less than 0.1 inconclusive",0.18
same,% Non (PLS-DA generated class probability),[1]; [6],0.44
same,% Ter (PLS-DA generated class probability),[1]; [6],0.56
same,Prediction,[1]; [6],Ter
same,Confidence (difference between class probabilities),"[1]; EPA compounds, medium dose level (M), values less than 0.1 inconclusive",0.12
same,Teratogenicity Classification,"[1]; [Doxylamine] 0.038 μm, devTox low",Non
same,Teratogenicity Classification,"[1]; [Doxylamine] 0.38 μm, devTox medium",Non
same,Teratogenicity Classification,"[1]; [Doxylamine] 1 μm, EPA low",Ter
same,Teratogenicity Classification,"[1]; [Doxylamine] 3.8 μm, devTox high",Ter
same,Teratogenicity Classification,"[1]; [Doxylamine] 10 μm, EPA medium",Ter
same,Teratogenicity Classification,"[1]; [Doxylamine] 100 μm, EPA high",Ter
same,"PLS-DA classification, these studies (EPA set)","[1]; all three concentrations (low, medium, and high)",teratogen
same,"PLS-DA classification, developmental toxicity assay (Table 11)",[1]; high concentration,teratogen
same,"PLS-DA classification, developmental toxicity assay (Table 11)",[1]; low and medium dose,non-teratogen
same,PLS-DA classification of EPA-provided chemical agents,[1]; overall conclusion,potential teratogens
same,Predicted teratogenicity (random forest statistical model),WA09 hESCs,Non
